In US20260001928A1 (CORTERIA PHARMACEUTICALS, priority 2022, published 2026):
*1 amine or outer side, *2 acyl side, *3 side chain or, on linkers, in order; H or OH if unused. Where a SMILES comes first, the peptide text is derived from it. Side-chain parts run from the residue outwards. [ ]: non-standard residue; d: D form. The star is where a group is joined. C18 diacid = O=C(O)CCCCCCCCCCCCCCCCC(=O)*; C16 diacid = O=C(O)CCCCCCCCCCCCCCC(=O)*; γGlu = O=C(O)[C@H](CCC(=O)[*:2])N[*:1]; Api = NC1(C(=O)O)CCNCC1; Abu = CC[C@H](N)C(=O)O; Pentanoyl = CCCCC(=O)*; Aib = CC(C)(N)C(=O)O

How the values were obtained:
human CRF2a receptor = molecular target: T1, human CRF2a receptor (Homo sapiens, UniProt Q13324); assay: Activity at human CRF2a receptor, cAMP functional assay in TeloHEAC cells; format: cell-based; conditions: TeloHEAC cells stably expressing human CRF2a receptor, relative to urocortin 2 (100 nM = 100%)
T1 construct: expressed in transfected cells; host or cells: TeloHEAC cells
T1 sequence (Q13324 1-411): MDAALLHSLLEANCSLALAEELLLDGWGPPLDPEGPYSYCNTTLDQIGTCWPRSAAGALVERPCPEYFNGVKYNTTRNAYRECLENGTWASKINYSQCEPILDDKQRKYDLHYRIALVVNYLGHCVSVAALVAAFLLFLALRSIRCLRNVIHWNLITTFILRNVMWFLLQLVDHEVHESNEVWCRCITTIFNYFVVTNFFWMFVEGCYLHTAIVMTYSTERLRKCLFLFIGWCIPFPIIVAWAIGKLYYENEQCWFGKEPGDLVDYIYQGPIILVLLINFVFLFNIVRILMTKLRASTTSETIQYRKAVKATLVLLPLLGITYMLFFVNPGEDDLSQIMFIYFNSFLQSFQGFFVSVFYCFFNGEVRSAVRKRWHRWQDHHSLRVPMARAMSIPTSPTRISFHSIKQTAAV
How it was run: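 TeloHEAC cells stably expressing human CRF2a (10000 cells/well, suspended in HBSS/20 mM HEPES with 2 mM IBMX) were exposed to compounds for 30 min at 37 °C. cAMP was read as the 665/620 nm fluorescence ratio after 1 h at room temperature. EC50 was derived relative to 100 nM urocortin 2, set as 100%.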

CFR1R receptor = molecular target: T2, CFR1R receptor (Homo sapiens, UniProt P34998); assay: Activity at anti-target CFR1R receptor, cAMP assay in CRF1R-overexpression CHO-K1 cells; format: cell-based; conditions: 100% = Sauvagine at 100 nM; for EC50: cAMP
T2 construct: host or cells: CHO-K1 (clone 2)
T2 sequence (P34998 24-415): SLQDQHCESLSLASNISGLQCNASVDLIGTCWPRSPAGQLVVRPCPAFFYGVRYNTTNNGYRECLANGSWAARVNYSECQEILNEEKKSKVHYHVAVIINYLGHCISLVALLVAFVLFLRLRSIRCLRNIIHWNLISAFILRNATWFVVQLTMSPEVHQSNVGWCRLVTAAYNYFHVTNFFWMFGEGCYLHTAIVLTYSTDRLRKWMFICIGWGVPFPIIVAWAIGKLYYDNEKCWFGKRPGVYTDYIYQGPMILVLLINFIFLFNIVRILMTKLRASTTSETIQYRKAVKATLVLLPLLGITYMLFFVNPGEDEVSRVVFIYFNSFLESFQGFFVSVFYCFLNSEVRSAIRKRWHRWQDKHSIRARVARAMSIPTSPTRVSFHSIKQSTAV
How it was run: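 Clone 2 cells were cultured in F12 (Hams)/10% FBS/400 μg/ml G418 at 37° C./5% CO2, frozen in medium with 10% DMSO, and thawed vials used. The protocol followed the TeloHAEC procedure, with 4000 cells/well final and Sauvagine at 100 nM defining 100% activation.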

[1] = In vitro plasma stability, human plasma; format: in vitro ADME; parameters: dose or concentration left out as unconfirmed; conditions: Human PLM, 37° C.
Method: (§1) In vitro plasma metabolic stability was studied in male Sprague Dawley rats and human. Test compounds were incubated at 3 M for 2 hours at 37° C. At each time point (0, 0.25, 1 and 2 h), samples were prepared for analysis by means of a single step protein precipitation technique by adding 150 μL of ethanol, 0.1% formic acid to 50 μL aliquots of plasma. Samples were mixed by vortex for homogeneity and then subjected to centrifugation at 14000 rpm for 15 min. The supernatant (100 μL) was collected, diluted with 100 μL of water, 0.1% formic acid and analyzed by LC-HRMS (TripleTOF 6600+, AB Sciex). For each test compound, the area ratios at each time point were compared to the 0 h area ratio and converted to a percentage remaining.

[2] = In vitro plasma stability, rat plasma; format: in vitro ADME; parameters: remaining at 2 h: dose or concentration left out as unconfirmed; conditions: male, Sprague Dawley, plasma; Rat PLM, 37° C.
Method: as §1

[3] = In vitro plasma stability, minipig plasma; format: in vitro ADME; parameters: remaining at 2 h: dose or concentration left out as unconfirmed; conditions: pig, plasma; Minipig PLM, 37° C.
[4] = In vitro subcutaneous tissue supernatant (SCts) stability and metabolite identification, rat; format: in vitro ADME; parameters: remaining at 2 h: dose or concentration left out as unconfirmed; conditions: male, Sprague Dawley; rat subcutaneous tissue supernatant (SCts), 37° C, 2 h
[5] = Chemical stability in buffer (pH 7.4 / pH 4.5), % purity loss; format: physicochemical; conditions: 40° C. vs 5° C., 14 or 28 days; for Buffer stability pH 7.4 % purity loss: 100 mM phosphate buffer pH 7.4; for Buffer stability pH 4.5 % purity loss: 100 mM acetate buffer pH 4.5
How it was run: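 Compounds dissolved at 10 mg/mL target in 100 mM phosphate (pH 7.4) or 100 mM acetate (pH 4.5) buffer for 1 h at room temperature, then centrifuged. Diluted supernatant stored at 5 °C or 40 °C for 14 or 28 days; % purity loss by LC-UV.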

Sprague Dawley rats = assay: Effect on systolic blood pressure, telemetry in Sprague Dawley rats; format: in vivo, rat; conditions: 0.1 mg/kg SC; for Systolic blood pressure (Mean) % change from baseline, 8 h / Systolic blood pressure (Mean) % change from baseline, 12 h / Systolic blood pressure (Mean) % change from baseline, 24 h: n=2; for Duration of action: last time point with an effect on BP still observed
How it was run: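 Sprague Dawley rats with abdominal-aorta telemetry catheters, recovered ≥10 days, received 0.1 mg/kg SC of compound or vehicle. Systolic pressure recorded 1 h pre-dose as baseline, then continuously up to 48 hours, expressed as % change from baseline; duration of action is last time point with a BP effect (n=2).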

| SMILES | EC50 (human CRF2a receptor) [nM] | Emax (% I) (CFR1R receptor) | EC50 (CFR1R receptor) [nM] | remaining at 2 h [1] [%] | remaining at 2 h [2] [%] | remaining at 2 h [3] [%] | remaining at 2 h [4] [%] | Buffer stability pH 7.4 % purity loss [5] | Systolic blood pressure (Mean) % change from baseline, 8 h (Sprague Dawley rats) [%] | Systolic blood pressure (Mean) % change from baseline, 12 h (Sprague Dawley rats) [%] | Systolic blood pressure (Mean) % change from baseline, 24 h (Sprague Dawley rats) [%] | Duration of action (Sprague Dawley rats) [h] | Buffer stability pH 4.5 % purity loss [5] |
| --- | --- | --- | --- | --- | --- | --- | --- | --- | --- | --- | --- | --- | --- |
| CC[C@H](C)[C@H](NC(C)=O)C(=O)N[C@H](C(=O)N[C@@H](CC(C)C)C(=O)N[C@@H](CO)C(=O)N[C@@H](CC(C)C)C(=O)N[C@@H](CC(=O)O)C(=O)N[C@@H](C(=O)N1CCC[C@H]1C(=O)N[C@H](C(=O)N[C@@H](CCCCN)C(=O)N[C@@H](CC(C)C)C(=O)N[C@@H](CCCCNC(=O)CC[C@H](NC(=O)CCCCCCCCCCCCCCCCC(=O)O)C(=O)O)C(=O)N[C@@H](CCCCN)C(=O)N[C@H](C(=O)N[C@@H](CC(C)C)C(=O)N[C@@H](CC(C)C)C(=O)N[C@@H](CCC(=O)O)C(=O)N[C@@H](CCC(N)=O)C(=O)N[C@@H](CCC(=O)O)C(=O)N[C@@H](CCCCN)C(=O)N[C@@H](CCC(N)=O)C(=O)N[C@@H](CCCCN)C(=O)N[C@@H](CCCCN)C(=O)N[C@@H](CCC(N)=O)C(=O)N[C@@H](CCCNC(=N)N)C(=O)N[C@@H](CCC(=O)O)C(=O)N[C@@H](CCC(N)=O)C(=O)N[C@@H](C)C(=O)N[C@@H](CCC(=O)O)C(=O)N[C@H](C(=O)N[C@@H](CC(N)=O)C(=O)NC(C)(C)C(=O)N[C@@H](CCC(N)=O)C(=O)N[C@H](C(=O)N[C@@H](CC(C)C)C(=O)N[C@@H](C)C(=O)N[C@@H](CCC(N)=O)C(=O)N[C@H](C(N)=O)C(C)C)[C@@H](C)CC)[C@@H](C)O)[C@@H](C)CC)[C@@H](C)CC)C(C)C)C(C)C [compound 125] (Ac-IVLSLD[dV]PIKLK([γGlu-C18 diacid])KILLEQEKQKKQREQAETN[Aib]QILAQV-NH2) | 0.15 | 18 | > 250 | 93 | 108 | 110 | 79 | 0/nd ^ % | −25 | −16 | 1 | 22 | – |
| CCCCC(=O)N[C@H](C(=O)N[C@@H](CC(C)C)C(=O)N[C@@H](CO)C(=O)N[C@@H](CC(C)C)C(=O)N[C@@H](CC(=O)O)C(=O)N[C@@H](C(=O)N1CCC[C@H]1C(=O)N[C@H](C(=O)N[C@@H](CCCCN)C(=O)N[C@@H](CC(C)C)C(=O)N[C@@H](CCCCNC(=O)CC[C@H](NC(=O)CCCCCCCCCCCCCCC(=O)O)C(=O)O)C(=O)N[C@@H](CCCCN)C(=O)N[C@H](C(=O)N[C@@H](CC(C)C)C(=O)N[C@@H](CC(C)C)C(=O)N[C@@H](CCC(=O)O)C(=O)N[C@@H](CCC(N)=O)C(=O)N[C@@H](CCC(=O)O)C(=O)N[C@@H](CCCCN)C(=O)N[C@@H](CCC(N)=O)C(=O)N[C@@H](CCCCN)C(=O)N[C@@H](CCCCN)C(=O)N[C@@H](CCC(N)=O)C(=O)N[C@@H](CCCNC(=N)N)C(=O)N[C@@H](CCC(=O)O)C(=O)N[C@@H](CCC(N)=O)C(=O)N[C@@H](C)C(=O)N[C@@H](CCC(=O)O)C(=O)N[C@H](C(=O)N[C@@H](CC(N)=O)C(=O)NC(C)(C)C(=O)N[C@@H](CCC(N)=O)C(=O)N[C@H](C(=O)N[C@@H](CC(C)C)C(=O)N[C@@H](C)C(=O)N[C@@H](CCC(N)=O)C(=O)N[C@H](C(N)=O)C(C)C)[C@@H](C)CC)[C@@H](C)O)[C@@H](C)CC)[C@@H](C)CC)C(C)C)C(C)C [compound 80] (Pentanoyl-VLSLD[dV]PIKLK([γGlu-C16 diacid])KILLEQEKQKKQREQAETN[Aib]QILAQV-NH2) | 0.35 | 10 | > 250 | 101 | 98 | 104 | – | 0/nd ^ % | – | – | – | – | – |
| CC[C@H](NC(=O)[C@H](CC(N)=O)NC(=O)[C@@H](NC(=O)[C@H](CCC(=O)O)NC(=O)[C@H](C)NC(=O)[C@H](CCC(N)=O)NC(=O)[C@H](CCC(=O)O)NC(=O)[C@H](CCCNC(=N)N)NC(=O)[C@H](CCC(N)=O)NC(=O)[C@H](CCCCN)NC(=O)[C@H](CCCCN)NC(=O)[C@H](CCC(N)=O)NC(=O)[C@H](CCCCN)NC(=O)[C@H](CCC(=O)O)NC(=O)[C@H](CCC(N)=O)NC(=O)[C@H](CCC(=O)O)NC(=O)[C@H](CC(C)C)NC(=O)[C@H](CC(C)C)NC(=O)[C@@H](NC(=O)[C@H](CCCCN)NC(=O)[C@H](CCCCNC(=O)CC[C@H](NC(=O)CCCCCCCCCCCCCCC(=O)O)C(=O)O)NC(=O)[C@H](CC(C)C)NC(=O)[C@H](CCCCN)NC(=O)[C@@H](NC(=O)[C@@H]1CCCN1C(=O)[C@H](NC(=O)[C@H](CC(=O)O)NC(=O)[C@H](CC(C)C)NC(=O)[C@H](CO)NC(=O)[C@H](CC(C)C)NC(=O)[C@@H](NC(=O)[C@@H](NC(C)=O)[C@@H](C)CC)C(C)C)C(C)C)[C@@H](C)CC)[C@@H](C)CC)[C@@H](C)O)C(=O)N[C@@H](CCC(N)=O)C(=O)N[C@H](C(=O)N[C@@H](CC(C)C)C(=O)N[C@@H](C)C(=O)N[C@@H](CCC(N)=O)C(=O)N[C@H](C(N)=O)C(C)C)[C@@H](C)CC [compound 51] (Ac-IVLSLD[dV]PIKLK([γGlu-C16 diacid])KILLEQEKQKKQREQAETN[Abu]QILAQV-NH2) | 0.12 | 9 | > 250 | 102 | 73 | 97 | – | 0/0 ^ % | −27 | −19 | −1 | 24 | 0/0 ^ % |
| CC[C@H](C)[C@H](NC(C)=O)C(=O)N[C@H](C(=O)N[C@@H](CC(C)C)C(=O)N[C@@H](CO)C(=O)N[C@@H](CC(C)C)C(=O)N[C@@H](CC(=O)O)C(=O)N[C@@H](C(=O)N1CCC[C@H]1C(=O)N[C@H](C(=O)N[C@@H](CCCCN)C(=O)N[C@@H](CC(C)C)C(=O)N[C@@H](CCCCNC(=O)CC[C@H](NC(=O)CCCCCCCCCCCCCCC(=O)O)C(=O)O)C(=O)N[C@@H](CCCCN)C(=O)N[C@H](C(=O)N[C@@H](CC(C)C)C(=O)N[C@@H](CC(C)C)C(=O)N[C@@H](CCC(=O)O)C(=O)N[C@@H](CCC(N)=O)C(=O)N[C@@H](CCC(=O)O)C(=O)N[C@@H](CCCCN)C(=O)N[C@@H](CCC(N)=O)C(=O)N[C@@H](CCCCN)C(=O)N[C@@H](CCCCN)C(=O)N[C@@H](CCC(N)=O)C(=O)N[C@@H](CCCNC(=N)N)C(=O)N[C@@H](CCC(=O)O)C(=O)N[C@@H](CCC(N)=O)C(=O)N[C@@H](C)C(=O)N[C@@H](CCC(=O)O)C(=O)N[C@H](C(=O)N[C@@H](CC(N)=O)C(=O)NC1(C(=O)N[C@@H](CCC(N)=O)C(=O)N[C@H](C(=O)N[C@@H](CC(C)C)C(=O)N[C@@H](C)C(=O)N[C@@H](CCC(N)=O)C(=O)N[C@H](C(N)=O)C(C)C)[C@@H](C)CC)CCNCC1)[C@@H](C)O)[C@@H](C)CC)[C@@H](C)CC)C(C)C)C(C)C [compound 57] (Ac-IVLSLD[dV]PIKLK([γGlu-C16 diacid])KILLEQEKQKKQREQAETN[Api]QILAQV-NH2) | 0.39 | 24 | > 250 | 104 | 96 | 81 | – | 0/0 ^ % | −34 | −25 | −2 | >24 | 0/0 ^ % |
